According to PubChem BioAssay (NCI):
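1) Cells in 96-well plates. 2) Compound, 48 h, 5 concentrations. 3) Linear interpolation between surrounding doses. 4) Unreached endpoint = highest concentration. TGI: total growth inhibition.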

Tests used:
Test in all cases: inhibition of tumour cell growth, NCI panel, 48 h
RXF 393 renal = system: RXF 393 renal
MOLT-4 leukemia = system: MOLT-4 leukemia
MDA-MB-435 = system: MDA-MB-435
HCT-116 colon = system: HCT-116 colon
NCI-H226 lung = system: NCI-H226 lung
MALME-3M melanoma = system: MALME-3M melanoma
HOP-62 NSCLC = system: HOP-62 NSCLC
NCI-H460 lung = system: NCI-H460 lung
OVCAR-3 ovarian = system: OVCAR-3 ovarian
NCI-H23 lung = system: NCI-H23 lung
SW-620 colon = system: SW-620 colon
HCT-15 colon = system: HCT-15 colon
SNB-19 CNS = system: SNB-19 CNS

Compound: CC(=O)Nc1ccc(-c2nc3ccccc3s2)cc1I
- TGI (RXF 393 renal): 37 µM
- TGI (MOLT-4 leukemia): > 100 µM
- TGI (MDA-MB-435): > 100 µM
- TGI (HCT-116 colon): 81 µM
- TGI (NCI-H226 lung): 59.4 µM
- TGI (MALME-3M melanoma): > 94.2 µM
- TGI (HOP-62 NSCLC): 39 µM
- TGI (NCI-H460 lung): > 100 µM
- TGI (OVCAR-3 ovarian): 32.4 µM
- TGI (NCI-H23 lung): 51.4 µM
- TGI (SW-620 colon): > 100 µM
- TGI (HCT-15 colon): > 100 µM
- TGI (SNB-19 CNS): > 87.5 µM

Compound: O=C(CSc1nc2[nH]ncc2c(=O)[nH]1)c1ccc(Cl)cc1
- TGI (RXF 393 renal): > 100 µM
- TGI (MOLT-4 leukemia): > 100 µM
- TGI (MDA-MB-435): > 100 µM
- TGI (HCT-116 colon): > 100 µM
- TGI (NCI-H226 lung): > 100 µM
- TGI (MALME-3M melanoma): > 100 µM
- TGI (HOP-62 NSCLC): > 100 µM
- TGI (NCI-H460 lung): > 100 µM
- TGI (OVCAR-3 ovarian): > 100 µM
- TGI (NCI-H23 lung): > 100 µM
- TGI (SW-620 colon): > 100 µM
- TGI (HCT-15 colon): > 100 µM
- TGI (SNB-19 CNS): > 100 µM

Compound: CN(C)CCN=C1Nc2ccccc2C(=S)N2CSCC12 (configuration not stated)
- TGI (RXF 393 renal): > 100 µM
- TGI (MOLT-4 leukemia): > 100 µM
- TGI (MDA-MB-435): > 100 µM
- TGI (HCT-116 colon): > 100 µM
- TGI (NCI-H226 lung): > 100 µM
- TGI (MALME-3M melanoma): > 100 µM
- TGI (HOP-62 NSCLC): > 100 µM
- TGI (NCI-H460 lung): > 100 µM
- TGI (OVCAR-3 ovarian): > 100 µM
- TGI (SW-620 colon): > 100 µM
- TGI (HCT-15 colon): > 100 µM
- TGI (SNB-19 CNS): > 100 µM

Compound: c1cc2c(c(NC3=NCCO3)c1)CCC2
- TGI (RXF 393 renal): > 100 µM
- TGI (MOLT-4 leukemia): > 100 µM
- TGI (MDA-MB-435): > 100 µM
- TGI (HCT-116 colon): > 100 µM
- TGI (NCI-H226 lung): > 100 µM
- TGI (MALME-3M melanoma): > 100 µM
- TGI (HOP-62 NSCLC): > 100 µM
- TGI (NCI-H460 lung): > 100 µM
- TGI (OVCAR-3 ovarian): > 100 µM
- TGI (NCI-H23 lung): > 100 µM
- TGI (SW-620 colon): > 100 µM
- TGI (HCT-15 colon): > 100 µM
- TGI (SNB-19 CNS): > 100 µM

Compound: Cc1ccc(N=Nc2ccc(O)c(CN(C)C)c2)cc1
- TGI (RXF 393 renal): 34.2 µM
- TGI (MOLT-4 leukemia): 53.4 µM
- TGI (MDA-MB-435): 32.3 µM
- TGI (HCT-116 colon): 51.8 µM
- TGI (NCI-H226 lung): 49.4 µM
- TGI (MALME-3M melanoma): 31.2 µM
- TGI (HOP-62 NSCLC): 26.3 µM
- TGI (NCI-H460 lung): 33.8 µM
- TGI (OVCAR-3 ovarian): 31.8 µM
- TGI (NCI-H23 lung): > 100 µM
- TGI (SW-620 colon): 70.1 µM
- TGI (HCT-15 colon): 50.2 µM
- TGI (SNB-19 CNS): > 100 µM

Compound: CC(C)(C)Nc1noc(=O)n1C(C)(C)C
- TGI (RXF 393 renal): > 100 µM
- TGI (MOLT-4 leukemia): > 100 µM
- TGI (MDA-MB-435): > 100 µM
- TGI (HCT-116 colon): > 100 µM
- TGI (NCI-H226 lung): > 100 µM
- TGI (MALME-3M melanoma): > 100 µM
- TGI (HOP-62 NSCLC): > 100 µM
- TGI (NCI-H460 lung): > 100 µM
- TGI (OVCAR-3 ovarian): > 100 µM
- TGI (NCI-H23 lung): > 100 µM
- TGI (SW-620 colon): > 100 µM
- TGI (HCT-15 colon): > 100 µM
- TGI (SNB-19 CNS): > 100 µM

Compound: O=C1NC(=O)C2(CCCCCC2)N1
- TGI (RXF 393 renal): > 100 µM
- TGI (MOLT-4 leukemia): > 100 µM
- TGI (MDA-MB-435): > 100 µM
- TGI (HCT-116 colon): > 100 µM
- TGI (NCI-H226 lung): > 100 µM
- TGI (MALME-3M melanoma): > 100 µM
- TGI (HOP-62 NSCLC): > 100 µM
- TGI (NCI-H460 lung): > 100 µM
- TGI (OVCAR-3 ovarian): > 100 µM
- TGI (NCI-H23 lung): > 100 µM
- TGI (SW-620 colon): > 100 µM
- TGI (HCT-15 colon): > 100 µM
- TGI (SNB-19 CNS): > 100 µM

Compound: Clc1cc(Cl)cc(C2ON=C(c3ccccc3)N2C23CC4CC(CC(C4)C2)C3)c1 (configuration not stated)
- TGI (RXF 393 renal): > 10 µM
- TGI (MOLT-4 leukemia): > 10 µM
- TGI (MDA-MB-435): > 10 µM
- TGI (HCT-116 colon): > 10 µM
- TGI (NCI-H226 lung): > 10 µM
- TGI (MALME-3M melanoma): > 10 µM
- TGI (HOP-62 NSCLC): > 10 µM
- TGI (NCI-H460 lung): > 10 µM
- TGI (OVCAR-3 ovarian): > 10 µM
- TGI (NCI-H23 lung): > 10 µM
- TGI (SW-620 colon): > 10 µM
- TGI (HCT-15 colon): > 10 µM
- TGI (SNB-19 CNS): > 10 µM

Compound: c1ccc([P+](Cc2ccccc2C[P+](c2ccccc2)(c2ccccc2)c2ccccc2)(c2ccccc2)c2ccccc2)cc1
- TGI (RXF 393 renal): > 100 µM
- TGI (MDA-MB-435): > 100 µM
- TGI (HCT-116 colon): > 100 µM
- TGI (NCI-H226 lung): > 100 µM
- TGI (MALME-3M melanoma): > 100 µM
- TGI (HOP-62 NSCLC): > 100 µM
- TGI (NCI-H460 lung): > 100 µM
- TGI (OVCAR-3 ovarian): > 100 µM
- TGI (NCI-H23 lung): > 100 µM
- TGI (SW-620 colon): > 100 µM
- TGI (HCT-15 colon): > 100 µM
- TGI (SNB-19 CNS): > 100 µM

Compound: COc1cccc2c1OC(c1ccc(C#N)cc1)C([N+](=O)[O-])=C2 (configuration not stated)
- TGI (RXF 393 renal): 3.12 µM
- TGI (MDA-MB-435): 2.72 µM
- TGI (HCT-116 colon): 2.8 µM
- TGI (NCI-H226 lung): 9.75 µM
- TGI (MALME-3M melanoma): 2.97 µM
- TGI (HOP-62 NSCLC): 8.3 µM
- TGI (NCI-H460 lung): 4.92 µM
- TGI (OVCAR-3 ovarian): 4.6 µM
- TGI (NCI-H23 lung): 3.25 µM
- TGI (SW-620 colon): 2.8 µM
- TGI (HCT-15 colon): 3.11 µM
- TGI (SNB-19 CNS): 19.2 µM

Compound: O=C(Nc1ccccc1)N(C1=NCC(CI)S1)c1ccc(F)cc1F (configuration not stated)
- TGI (RXF 393 renal): > 100 µM
- TGI (MOLT-4 leukemia): 57 µM
- TGI (MDA-MB-435): > 100 µM
- TGI (HCT-116 colon): > 100 µM
- TGI (NCI-H226 lung): > 100 µM
- TGI (MALME-3M melanoma): > 100 µM
- TGI (HOP-62 NSCLC): > 100 µM
- TGI (OVCAR-3 ovarian): > 100 µM
- TGI (NCI-H23 lung): > 100 µM
- TGI (SW-620 colon): > 100 µM
- TGI (HCT-15 colon): > 100 µM
- TGI (SNB-19 CNS): > 100 µM

Compound: COCCCNC(=O)C1=C(C)NC(C)=C(C(=O)NCCCOC)C1
- TGI (RXF 393 renal): > 100 µM
- TGI (MOLT-4 leukemia): > 100 µM
- TGI (MDA-MB-435): > 100 µM
- TGI (HCT-116 colon): > 100 µM
- TGI (NCI-H226 lung): > 100 µM
- TGI (MALME-3M melanoma): 41.2 µM
- TGI (HOP-62 NSCLC): > 100 µM
- TGI (NCI-H460 lung): > 100 µM
- TGI (OVCAR-3 ovarian): > 100 µM
- TGI (NCI-H23 lung): > 100 µM
- TGI (SW-620 colon): > 100 µM
- TGI (SNB-19 CNS): > 100 µM

Compound: COc1cc(OC)c2nc(C)c3c(c2c1)NCC3
- TGI (RXF 393 renal): 18.1 µM
- TGI (MDA-MB-435): 21.6 µM
- TGI (HCT-116 colon): 12.9 µM
- TGI (NCI-H226 lung): 19 µM
- TGI (MALME-3M melanoma): 24 µM
- TGI (HOP-62 NSCLC): 21.6 µM
- TGI (NCI-H460 lung): 12 µM
- TGI (OVCAR-3 ovarian): 33.4 µM
- TGI (NCI-H23 lung): 19.9 µM
- TGI (SW-620 colon): 19.1 µM
- TGI (HCT-15 colon): 25.9 µM
- TGI (SNB-19 CNS): 40.7 µM

Compound: CCN(CC)CCNC(=O)c1cc2cc(NC(=O)c3cc4cc(NC(=O)c5cc6cc(N)ccc6[nH]5)ccc4[nH]3)ccc2[nH]1
- TGI (RXF 393 renal): > 100 µM
- TGI (MOLT-4 leukemia): > 100 µM
- TGI (MDA-MB-435): > 100 µM
- TGI (NCI-H226 lung): > 100 µM
- TGI (MALME-3M melanoma): > 100 µM
- TGI (HOP-62 NSCLC): > 100 µM
- TGI (NCI-H460 lung): > 100 µM
- TGI (OVCAR-3 ovarian): > 100 µM
- TGI (NCI-H23 lung): > 100 µM
- TGI (SW-620 colon): > 100 µM
- TGI (HCT-15 colon): > 100 µM
- TGI (SNB-19 CNS): > 100 µM

Compound: O=c1[nH]nc(Cc2ccccc2)n1/N=C\c1ccccc1
- TGI (RXF 393 renal): > 100 µM
- TGI (MOLT-4 leukemia): > 100 µM
- TGI (MDA-MB-435): > 100 µM
- TGI (HCT-116 colon): > 100 µM
- TGI (NCI-H226 lung): > 100 µM
- TGI (MALME-3M melanoma): > 100 µM
- TGI (HOP-62 NSCLC): > 100 µM
- TGI (NCI-H460 lung): > 100 µM
- TGI (OVCAR-3 ovarian): > 100 µM
- TGI (NCI-H23 lung): > 100 µM
- TGI (SW-620 colon): > 100 µM
- TGI (HCT-15 colon): > 100 µM
